How the values were obtained:
NFκB = assay: NFκB-INHIBITION TEST (NF-kB gene reporter luciferase, TNFα-stimulated FB293 cells); type: cell-based, human
Experimental: The NFκB-INHIBITION TEST is conducted in the following manner. FB293 cells, a stable transfected human epithelial cell line containing the gene reporter for NF-kB are used. They may be obtained from, e.g., Panomics (Fremont, Calif.). FB293 are plated at a density of 5×10^4 cells/mL in a suitable medium, e.g., Dulbecco's modified Eagle's medium (DMEM) supplemented with 10% fetal bovine serum (Invitrogen, San Diego, Calif.). The FB293 cells are stimulated with 100 ng/mL of Tumor Necrosis Factor-α (TNFα, available from Sigma-Aldrich of St Louis, Mo.) in the presence of the test sample. Separately, a control sample is tested wherein no test sample is applied. Following a 24-hour incubation at 37° C. with 5% CO2, cells are lysed with 40 μl of reporter lysis buffer (Promega, Madison, Wis.). A 20-μl aliquot of the lysate is assayed using a luciferase assay kit (Promega) and counted for 10 s in a Lmax luminometer (Molecular Devices, Sunnyvale, Calif.) with the data represented as the relative light unit/second. Percent NFκB Inhibition of the test sample is calculated as: NFκB Inhibition=[1−(Lsample/Lcontrol)]*100 where Lsample is the luminescence of the sample and Lcontrol is the luminescence of the control.
The NFκB-INHIBITION TEST described above was performed on test samples of Bay 11-7082 (Sigma-Aldrich, St. Louis, Mo.), Tetrahydrocurcuminoids CG (Sabinsa Corporation, Piscataway, N.J.), as well as various concentrations of 4-hexylresorcinol. The results are shown in Table 1, in which NF-kB Gene Reporter Activation (Luminescence, L) is reported for the test samples and a control sample. Percent NF-kB Inhibition is also reported.
The NFκB-INHIBITION TEST described above was performed on a series of substituted resorcinols each having a concentration of 10 ug/ml.

elastin promoter = assay: TROPOELASTIN PROMOTER ASSAY (elastin promoter-luciferase reporter in H9C2 cells); type: cell-based, rat; conditions: 0.1 ug/ml on active basis; for Percent Change Over Vehicle: 24 h (Table 3)
Experimental: Suitable tropoelastin promoters may be determined, for example, using the TROPOELASTIN PROMOTER ASSAY. The TROPOELASTIN PROMOTER ASSAY is performed as follows. Rat cardiac myoblasts H9C2 (which may be purchased, for example from ATCC of Manassas, Va.) are used. Cultures are maintained in Dulbecco's modified Eagle's medium (DMEM, Invitrogen Life Technologies, Carlsbad, Calif.) supplemented with 10% fetal bovine serum, 2 mM glutamine, 100 units/ml penicillin, and 50 ug/ml streptomycin (Invitrogen Life Technologies, Carlsbad, Calif.). Cell cultures are transiently transfected with the elastin promoter-luciferase reporter construct (Elp2.2, a 2.2 kb elastin promoter fragment from nt −2267 to nt +2, driving the firefly luciferase gene, which may be obtained from Promega, Madison Wis.). DNA is prepared by Qiagen Maxi columns (Qiagen Valencia, Calif.). In all transfections, a construct with the thymidine kinase promoter and the Renilla luciferase reporter gene (pRL-TK, Promega, Madison Wis.) is included as an internal control. Typically, cells grown in 48-well plates are transfected with 0.45 ug total DNA per well using Lipofectamine 2000 (Invitrogen Life Technologies, Carlsbad, Calif.). One day after transfection, cells are treated with agents at indicated concentrations for approximately 24 hours before they are lysed for luciferase assays, using Dual-Luciferase Reporter System from Promega (Madison, Wis.), following manufacturer's protocol. The firefly luciferase activity is measured first (representing elastin promoter activity), followed by the renilla luciferase (internal control), using luminometer LMAX, from Molecular Devices (Sunnyvale, Calif.). The ratio of these two luciferase activities (RLU) is used to evaluate the Tropoelastin Promoter Activity. […]

[1] = 10 ug/ml, series of substituted resorcinols (Table 2)

With `CCCCCCc1ccc(O)cc1O` [4-Hexylresorcinol] the “Percent NF-kB Inhibition” value (NFκB; 1 ug/ml, TNFα 100 ng/ml stimulated FB293 cells, 24 h) was 1.9%, the “Percent NF-kB Inhibition” value (NFκB; 5 ug/ml, TNFα 100 ng/ml stimulated FB293 cells, 24 h) was 50.9% and the “Percent NF-kB Inhibition” value (NFκB; 10 ug/ml, TNFα 100 ng/ml stimulated FB293 cells, 24 h (Table 1)) was 72.9%. For the same compound, the “Percent NF-kB Inhibition” value (NFκB; [1]) was 92.4%, the “Percent NF-kB Inhibition” value (NFκB; 50 ug/ml, TNFα 100 ng/ml stimulated FB293 cells, 24 h) was 91.4% and the “Percent Change Over Vehicle” value (elastin promoter) was −12%. For the same compound, the “Percent Change Over Vehicle” value (elastin promoter; listed as 4-hexylresorcinol) was −12% and the “Tropoelastin Promoter Activity” value (elastin promoter; 24 h, vehicle 1.36 ± 0.33 (Table 3)) was 1.2 ± 0.12.
In the case of `CCCCCCCCCCCC1c2cc(c(O)cc2O)C(CCCCCCCCCCC)c2cc(c(O)cc2O)C(CCCCCCCCCCC)c2cc(c(O)cc2O)C(CCCCCCCCCCC)c2cc1c(O)cc2O` (stereo not drawn) [C-Undecylcalix[4]-resorcinarene, C-Undecylcalix[4]-resorcinarene], the “Percent NF-kB Inhibition” value (NFκB; [1]) is reported as 4.87%.
`CC1CCCC(=O)CCCCCc2cc(O)cc(O)c2C(=O)O1` (stereo not drawn) [Zearalanone] was tested, and the “Percent NF-kB Inhibition” value (NFκB; [1]) was 50.95%.
With `CC1CCCC(O)CCCCCc2cc(O)cc(O)c2C(=O)O1` (stereo not drawn) [β-Zearalanol] the “Percent NF-kB Inhibition” value (NFκB; [1]) was 76.56%.
With `C[C@H]1CCC[C@@H](O)CCC/C=C/c2cc(O)cc(O)c2C(=O)O1` [β-Zearalenol] the “Percent NF-kB Inhibition” value (NFκB; [1]) was 87.1%.
